Results as given in ChEMBL document CHEMBL4002568, “Synthesis, alkaline phosphatase inhibition studies and molecular docking of novel derivatives of 4-quinolones” (Eur J Med Chem, 2017).

Assays:
[1] = target: T1, Alkaline phosphatase, tissue-nonspecific isozyme (Bos taurus, UniProt P09487); test: Inhibition of bovine TNAP using CDP-star as substrate preincubated for 5 to 7 mins followed by substrate addition measured after 15 mins by spectrophotometric method
T1 sequence (P09487 whole entry): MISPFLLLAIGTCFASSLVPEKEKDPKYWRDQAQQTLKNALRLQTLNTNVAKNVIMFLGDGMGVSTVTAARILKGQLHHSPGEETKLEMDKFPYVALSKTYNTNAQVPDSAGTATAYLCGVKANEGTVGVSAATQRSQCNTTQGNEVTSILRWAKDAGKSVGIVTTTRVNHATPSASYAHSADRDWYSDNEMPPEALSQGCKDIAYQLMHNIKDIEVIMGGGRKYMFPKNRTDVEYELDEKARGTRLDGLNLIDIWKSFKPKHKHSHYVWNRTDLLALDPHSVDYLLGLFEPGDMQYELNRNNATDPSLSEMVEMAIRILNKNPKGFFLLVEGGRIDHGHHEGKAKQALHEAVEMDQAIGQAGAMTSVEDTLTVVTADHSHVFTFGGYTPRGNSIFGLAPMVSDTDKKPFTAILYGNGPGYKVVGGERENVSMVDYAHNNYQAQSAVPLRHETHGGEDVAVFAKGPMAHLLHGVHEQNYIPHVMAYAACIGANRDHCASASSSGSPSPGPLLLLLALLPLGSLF

[2] = target: Intestinal-type alkaline phosphatase (Bos taurus, UniProt P19111); test: Inhibition of calf intestinal alkaline phosphatase using CDP-star as substrate preincubated for 5 to 7 mins followed by substrate addition measured after 15 mins by spectrophotometric method
[3] = target: Intestinal-type alkaline phosphatase (Bos taurus) (UniProt P19111); test: Inhibition of calf intestinal alkaline phosphatase at 0.2 mM using CDP-star as substrate preincubated for 5 to 7 mins followed by substrate addition measured after 15 mins by spectrophotometric method
[4] = target: T2, Alkaline phosphatase, tissue-nonspecific isozyme (Bos taurus) (UniProt P09487); test: Inhibition of bovine TNAP at 0.2 mM using CDP-star as substrate preincubated for 5 to 7 mins followed by substrate addition measured after 15 mins by spectrophotometric method
T2 sequence (whole entry): T1 sequence (P09487 whole entry)

[5] = target: Intestinal-type alkaline phosphatase (Bos taurus) (UniProt P19111); test: Potency index, ratio of L-phenylalanine IC50 to test compound IC50 for calf intestinal alkaline phosphatase

Intestinal-type alkaline phosphatase, sequence (P19111 whole entry): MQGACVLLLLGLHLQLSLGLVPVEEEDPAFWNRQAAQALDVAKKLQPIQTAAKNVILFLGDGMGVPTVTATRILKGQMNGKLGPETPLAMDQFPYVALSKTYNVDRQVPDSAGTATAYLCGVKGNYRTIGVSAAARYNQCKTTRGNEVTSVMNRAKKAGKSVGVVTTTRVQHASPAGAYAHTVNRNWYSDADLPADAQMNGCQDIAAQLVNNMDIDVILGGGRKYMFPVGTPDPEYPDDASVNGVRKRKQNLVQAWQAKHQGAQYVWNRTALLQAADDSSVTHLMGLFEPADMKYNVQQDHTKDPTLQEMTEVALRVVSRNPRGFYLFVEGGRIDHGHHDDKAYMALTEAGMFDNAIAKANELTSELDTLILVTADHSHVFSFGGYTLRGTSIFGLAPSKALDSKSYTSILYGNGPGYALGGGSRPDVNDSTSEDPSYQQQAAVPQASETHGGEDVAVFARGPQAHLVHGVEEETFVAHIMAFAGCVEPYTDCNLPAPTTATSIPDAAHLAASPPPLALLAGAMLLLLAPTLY
Intestinal-type alkaline phosphatase (Bos taurus), sequence (P19111 20-506 limits assumed): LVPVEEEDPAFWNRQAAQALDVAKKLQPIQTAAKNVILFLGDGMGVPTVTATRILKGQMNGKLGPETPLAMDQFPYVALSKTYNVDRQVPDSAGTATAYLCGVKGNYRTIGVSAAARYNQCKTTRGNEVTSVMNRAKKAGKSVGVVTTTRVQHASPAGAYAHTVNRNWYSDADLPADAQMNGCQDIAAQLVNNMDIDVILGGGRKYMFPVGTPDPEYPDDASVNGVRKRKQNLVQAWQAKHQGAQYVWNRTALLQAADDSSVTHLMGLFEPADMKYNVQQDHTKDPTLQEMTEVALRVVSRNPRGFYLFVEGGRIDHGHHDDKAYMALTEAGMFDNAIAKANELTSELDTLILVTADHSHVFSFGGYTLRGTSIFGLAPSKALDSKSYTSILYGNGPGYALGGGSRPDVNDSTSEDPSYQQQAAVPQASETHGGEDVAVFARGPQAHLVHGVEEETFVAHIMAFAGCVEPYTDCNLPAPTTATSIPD

Row | SMILES | IC50 [1] [µM] | IC50 [2] [µM] | inhibition [3] [%] | inhibition [4] [%] | Ratio IC50 [5]
1 | Cc1ccc(-c2cc(=O)c3cc(N)ccc3[nH]2)cc1 | 19.4 | 16.2 |  |  | 
2 | Cc1ccc(-c2[nH]c3ccc(NC(=O)C(F)(F)F)cc3c(=O)c2-c2ccc(C)cc2)cc1 | 6.02 | 1.67 |  |  | 
3 | Cc1ccc(-c2c(Br)c(=O)c3cc([N+](=O)[O-])ccc3n2C(C)c2ccccc2)cc1 (stereo not drawn) | 1.34 | 2.47 |  |  | 
4 | CCc1ccc(-c2c(-c3ccc(C)cc3)n(Cc3ccc(OC)cc3)c3ccc([N+](=O)[O-])cc3c2=O)cc1 | 1.66 | 5.75 |  |  | 
5 | Cc1ccc(-c2[nH]c3ccc([N+](=O)[O-])cc3c(=O)c2Br)cc1 | 6.47 | 12.1 |  |  | 
6 | COc1ccc(-c2c(-c3ccc(C)cc3)[nH]c3ccc(N)cc3c2=O)cc1 | 14.8 | 1.06 |  |  | 
7 | COc1ccc(Cn2c(-c3ccc(C)cc3)c(C(F)(F)F)c(=O)c3cc([N+](=O)[O-])ccc32)cc1 | 4.53 | 4.58 |  |  | 
8 | CCCCCc1cc(=O)c2cc([N+](=O)[O-])ccc2n1Cc1ccc(OC)cc1 | 1.51 | 1.38 |  |  | 
9 | COc1ccc(Cn2c(-c3ccc(C)cc3)c(-c3ccc(C(F)(F)F)cc3)c(=O)c3cc([N+](=O)[O-])ccc32)cc1 | 6.19 | 8.34 |  |  | 
10 | COc1ccc(Cn2c(-c3ccc(C)cc3)c(-c3ccc(C)cc3)c(=O)c3cc(N)ccc32)cc1 | 15.1 |  | 38.7 |  | 
11 | CCCCCc1[nH]c2ccc([N+](=O)[O-])cc2c(=O)c1Br | 17.2 | 3.06 |  |  | 
12 | COc1ccc(C(C)n2c(-c3ccc(C)cc3)cc(=O)c3cc([N+](=O)[O-])ccc32)cc1 (stereo not drawn) | 17.9 | 4.75 |  |  | 
13 | COc1ccc(Cn2c(-c3ccc(C)cc3)c(-c3ccc(OC)cc3)c(=O)c3cc([N+](=O)[O-])ccc32)cc1 |  | 2.04 |  | 46.8 | 40
14 | COc1ccc(Cn2c(-c3ccc(C)cc3)c(-c3ccccc3C=O)c(=O)c3cc([N+](=O)[O-])ccc32)cc1 | 2.35 | 192 |  |  | 
15 | CCCCCc1cc(=O)c2cc([N+](=O)[O-])ccc2[nH]1 | 44.8 | 16.7 |  |  | 
16 | CCCCCc1c(-c2ccc(C(F)(F)F)cc2)c(=O)c2cc([N+](=O)[O-])ccc2n1Cc1ccc(OC)cc1 | 38.5 |  | 48.6 |  | 
17 | Cc1ccc(-c2cc(=O)c3cc([N+](=O)[O-])ccc3[nH]2)cc1 | 2.56 | 6.25 |  |  | 
18 | CCCCCc1c(Br)c(=O)c2cc([N+](=O)[O-])ccc2n1Cc1ccc(OC)cc1 | 9.51 | 122 |  |  | 
19 | COc1ccc(Cn2c(-c3ccc(C)cc3)c(-c3cc(C)cc(C)c3)c(=O)c3cc([N+](=O)[O-])ccc32)cc1 | 4.74 | 28.7 |  |  | 
20 | Cc1ccc(-c2[nH]c3ccc([N+](=O)[O-])cc3c(=O)c2-c2ccc(C(F)(F)F)cc2)cc1 | 2.69 | 4.38 |  |  | 
21 | COc1ccc(Cn2c(-c3ccc(C)cc3)c(Br)c(=O)c3cc([N+](=O)[O-])ccc32)cc1 | 4.22 | 2.43 |  |  | 
22 | COc1ccc(Cn2c(-c3ccc(C)cc3)c(-c3ccc(C)cc3)c(=O)c3cc([N+](=O)[O-])ccc32)cc1 |  | 2.92 |  | 46.1 | 40
23 | COc1ccc(Cn2c(-c3ccc(C)cc3)cc(=O)c3cc([N+](=O)[O-])ccc32)cc1 | 133 |  | 48.6 |  | 
